These results are taken from patent US9782429B2, “Formulation having mobilizing activity” (GENTIUM SPA, priority 2000, dated 2017).

This assay has as its system white blood cells (WBC). Kind of assay: Effect of G-CSF and/or defibrotide on the amount of white blood cells in murine blood. The class given is in vivo, BALB/c mice. As to conditions: mice, IP injection, 5 days treatment; FIG. 1. As for the experimental part: This experiment was carried out to evaluate the effect of the administration of G-CSF and/or defibrotide (DEF) on the amount of white blood cells (WBC) present in murine blood. BALB/c mice from 6 to 8 weeks old and having a body weight of from 20 to 25 g were subjected to intraperitoneal (IP) injections of G-CSF (5 μg/mouse/day), DEF (1 mg/mouse/day), or a combination of G-CSF (5 μg/mouse/day) and increasing doses of DEF (1, 10, 15 mg/mouse/day). A saline solution, buffered to 0.1%, of […] (PBS/MSA) was administered by IP injection to the control mice which had not received G-CSF and/or DEF. The mice were treated for 5 days and sacrificed after 3 or 5 days of treatment, or 3 days after therapy had ceased. The following symbols were used to represent each group of mice: G-CSF (▪) (n=24), DEF 1 (◯) (n=3), G-CSF+DEF 1 (♦) (n=13), G-CSF+DEF 10 (▴) (n=6), G-CSF+DEF 15 (●) (n=23). The mean white blood cell count in PBS/MSA in the control mice was 2.87±0.2×10^6/ml of blood; the data ate expressed as mean± standard error of the mean (SEM).

In the case of defibrotide, the “amount of white blood cells in circulation in murine blood” value is “does not have a positive influence”.
